Results: patent publication US9567319B2, “Compound having higher inhibitory activity on protein kinase G and preparation method thereof” (Jenkem Technology Co., Ltd., (Tianjin), priority 2014, dated 2017)
≈ marks a conversion by molar mass, not a printed value. Where “and” joins values, the source holds several entries; their conditions need not be identical. Equal values may be shown once.

Key:
[1] = system: hyperalgesia induced by Freund's complete adjuvant (CFA) in rats; experiment: Von Frey filament test, CFA induced hyperalgesia in rats; type: in vivo, SD rats; conditions: for Von Frey Filament Test Values (Mean ± SD), Baseline: pretreatment, n=8; for Von Frey Filament Test Values (Mean ± SD), 15 min: 15 min post treatment; for Von Frey Filament Test Values (Mean ± SD), 2 h: 2 h post treatment
Experimental: Compounds 46 and JK-02A were prepared according to the disclosure of US patent application No. US2008/0176920, and compound JK-02H was prepared according to Example 1. A repeat efficacy study was carried out on the same batch of animals with a single-dose treatment followed by a washing-out period. The 14 days in life studies included two stages: a single low dose treatment assessment on the 7th day and then a single high dose treatment test on the 14th day after CFA injection. On the 7th day after CFA injection, the rats were randomly assigned to respective groups using a computer generated randomization procedure based on the body weight and the baseline values of Von Frey and weight bearing test. Animals received corresponding single dose treatments (vehicle and 3 test articles) on the 7th and 14th days after CFA injection, respectively, and the effect of the test compounds were evaluated. Hyperalgesia of all the study animals was assessed following a single low dose treatment with the test articles on day 7, while a single high dose effect of the test article was evaluated on day 14. The mechanical hyperalgesia and weight bearing were measured on day 7 and day 14 after CFA injection, followed by administration of control or test articles. Von Frey filaments and weight bearing were measured on all the study animals at three time points on day 7, and four time points on day 14. An extra time point assessment was conducted on day 14, considering the strong analgesic effect of the test articles at a higher dose noticed during the test at the 3th time point. Mechanical hyperalgesia of the left hind paw was measured before and during the course of study in all animal groups by determining withdrawal thresholds to Von Frey filament (Bioseb, France). Increasing tensile force perpendicular to the plantar surface of the paw was applied to the filaments. The threshold for paw withdrawal was calculated by taking the average of 2-3 repeated stimuli (unit in “g”). On day 7, Von Frey Filament measurements were conducted three times, at the time points of pretreatment, 15 min and 2 hours post treatment. Following a one-week washing out period, on day 14 after CFA injection, Von Frey Filament tests were performed again four times post a single high dose administration. Rats treated with vehicle or high dose test articles were measured at the time points of pretreatment, 15 min, 2 and 5 hours post treatment. All the results were expressed as mean±SD. One-way analysis of variance (ANOVA) followed by a multiple comparison test were applied among the groups, p<0.05 accepted as significant.

[2] = system: hyperalgesia induced by Freund's complete adjuvant (CFA) in rats; experiment: Weight bearing test, CFA induced hyperalgesia in rats; type: in vivo, SD rats; conditions: for Weight Bearing Test Values (Mean ± SD), Baseline: pretreatment, n=8; for Weight Bearing Test Values (Mean ± SD), 15 min: 15 min post treatment; for Weight Bearing Test Values (Mean ± SD), 2 h: 2 h post treatment
Experimental: Compounds 46 and JK-02A were prepared according to the disclosure of US patent application No. US2008/0176920, and compound JK-02H was prepared according to Example 1. A repeat efficacy study was carried out on the same batch of animals with a single-dose treatment followed by a washing-out period. The 14 days in life studies included two stages: a single low dose treatment assessment on the 7th day and then a single high dose treatment test on the 14th day after CFA injection. On the 7th day after CFA injection, the rats were randomly assigned to respective groups using a computer generated randomization procedure based on the body weight and the baseline values of Von Frey and weight bearing test. Animals received corresponding single dose treatments (vehicle and 3 test articles) on the 7th and 14th days after CFA injection, respectively, and the effect of the test compounds were evaluated. Hyperalgesia of all the study animals was assessed following a single low dose treatment with the test articles on day 7, while a single high dose effect of the test article was evaluated on day 14. The mechanical hyperalgesia and weight bearing were measured on day 7 and day 14 after CFA injection, followed by administration of control or test articles. Von Frey filaments and weight bearing were measured on all the study animals at three time points on day 7, and four time points on day 14. An extra time point assessment was conducted on day 14, considering the strong analgesic effect of the test articles at a higher dose noticed during the test at the 3th time point. Rats distributed body weight unequally on the CFA-injected and contra lateral paws, which was measured by a weight balance changing instrument (Bio-medical, USA). The animals were tested in a box constructed to register the weight load exerted by the hind paws by means of force plates inserted in the floor. The mean weight bearing (unit in “g”) between the CFA-injected paw and the contra-lateral paw was determined in 10 seconds. The weight bearing test of all study animals was conducted at the same time intervals as the mechanical hyperalgesia test. All the results were expressed as mean±SD. One-way analysis of variance (ANOVA) followed by a multiple comparison test were applied among the groups, p<0.05 accepted as significant.

[3] = Test of water solubility of the compounds
Experimental: At room temperature, about 0.1 g of each sample to be tested (solid materials should be ground as powder) was added to a 10 mL cylinder with a ground glass stopper. Water was gradually added. After each addition of 0.5 mL water, the resulting solution was stirred for 10 min for mixing, and was then visually examined for the presence of any undissolved sample. If there still exists undissolved sample or undissolved portions of the sample after 10 mL water was added, the test would be continued in a 100 mL cylinder.

[4] = day 7 after CFA, low dose groups (46 and JK-02A 10 mg/kg, JK-02H 5 mg/kg)
[5] = day 7 after CFA, single low dose i.v. (46 and JK-02A 10 mg/kg, JK-02H 5 mg/kg)
[6] = day 14 after CFA, high dose groups (46 and JK-02A 40 mg/kg, JK-02H 20 mg/kg)
[7] = day 14 after CFA, single high dose i.v. (46 and JK-02A 40 mg/kg, JK-02H 20 mg/kg)
[8] = day 14 after CFA, single high dose i.v. (46 and JK-02A 40 mg/kg, JK-02H 20 mg/kg), 5 h post treatment
[9] = individual animal, high dose i.v. (46 and JK-02A 40 mg/kg, JK-02H 20 mg/kg), two repeated stimuli
[10] = individual animal, low dose i.v. (46 and JK-02A 10 mg/kg, JK-02H 5 mg/kg), two repeated stimuli
[11] = individual animal, high dose i.v. (46 and JK-02A 40 mg/kg, JK-02H 20 mg/kg)
[12] = individual animal, low dose i.v. (46 and JK-02A 10 mg/kg, JK-02H 5 mg/kg)

CCCOc1ccc(O)c(F)c1C(=O)c1ccc(C(=O)N[C@@H]2CNC[C@H]2NC(=O)c2ccc3cn[nH]c3c2)cc1 [compound 46]
Von Frey Filament Test Values (Mean ± SD), Baseline [1, 4]: 6.81 ± 0.74 g | Von Frey Filament Test Values (Mean ± SD), 15 min [1, 5]: 7.12 ± 1.20 g | Von Frey Filament Test Values (Mean ± SD), 2 h [1, 5]: 7.69 ± 1.59 g | Von Frey Filament Test Values (Mean ± SD), Baseline [1, 6]: 7.01 ± 0.75 g | Von Frey Filament Test Values (Mean ± SD), 15 min [1, 7]: 8.17 ± 1.50 g | Von Frey Filament Test Values (Mean ± SD), 2 h [1, 7]: 8.04 ± 1.83 g | Von Frey Filament Test Values (Mean ± SD), 5 h [1, 8]: 7.66 ± 1.72 g | Von Frey Values of Individual Animal, Day 14, 15 min [1, 9]: 7.3 g and 9.0 g and 8.3 g and 7.5 g and 9.6 g (2×) and 10.8 g and 7.0 g and 6.7 g and 8.2 g (2×) and 5.5 g and 5.6 g and 8.0 g and 10.5 g and 8.9 g | Von Frey Values of Individual Animal, Day 14, 2 h [1, 9]: 5.8 g and 7.3 g and 8.2 g and 7.0 g and 6.2 g and 7.1 g and 8.9 g (2×) and 7.2 g and 5.9 g (2×) and 8.5 g and 9.7 g and 8.8 g and 11.1 g and 12.1 g | Von Frey Values of Individual Animal, Day 14, 5 h [1, 9]: 6.6 g (2×) and 7.5 g (2×) and 7.1 g and 6.1 g and 5.9 g and 6.3 g and 8.8 g and 6.8 g and 5.8 g and 7.0 g and 8.7 g and 9.9 g and 11.7 g and 10.3 g | Von Frey Values of Individual Animal, Day 7, 15 min [1, 10]: 7.6 g (2×) and 7.5 g (2×) and 6.8 g and 6.6 g and 5.5 g and 8.2 g and 5.9 g and 7.9 g and 4.6 g and 5.3 g and 9.0 g and 8.9 g and 7.8 g and 7.2 g | Von Frey Values of Individual Animal, Day 7, 2 h [1, 10]: 9.3 g (2×) and 8.8 g and 9.4 g (2×) and 8.6 g and 6.5 g (3×) and 5.8 g and 5.9 g (2×) and 7.4 g and 5.5 g and 8.4 g and 9.8 g | First Baseline, Von Frey, individual animal ([1]; individual animal, pretreatment day 7, two repeated stimuli per animal): 7.4 g and 5.4 g and 6.2 g and 6.1 g (2×) and 6.4 g and 6.3 g and 5.5 g and 7.5 g and 7.0 g and 7.3 g and 6.7 g and 7.6 g (2×) and 8.1 g and 7.7 g | Second Baseline, Von Frey, individual animal ([1]; individual animal, pretreatment day 14 after washing-out, two repeated stimuli per animal): 7.6 g (2×) and 7.7 g and 6.4 g and 6.2 g (2×) and 5.5 g and 5.7 g and 7.1 g and 7.9 g and 7.0 g and 7.3 g and 7.2 g (2×) and 8.1 g and 7.5 g | Weight Bearing Test Values (Mean ± SD), Baseline [2, 4]: 48.54 ± 7.73 g | Weight Bearing Test Values (Mean ± SD), 15 min [2, 5]: 44.76 ± 8.54 g | Weight Bearing Test Values (Mean ± SD), 2 h [2, 5]: 41.09 ± 8.58 g | Weight Bearing Test Values (Mean ± SD), Baseline [2, 6]: 46.73 ± 5.58 g | Weight Bearing Test Values (Mean ± SD), 15 min [2, 7]: 34.03 ± 5.67 g | Weight Bearing Test Values (Mean ± SD), 2 h [2, 7]: 44.46 ± 11.29 g | Weight Bearing Test Values (Mean ± SD), 5 h [2, 8]: 41.06 ± 6.98 g | Weight Bearing Values of Individual Animal, Day 14, 15 min, Left [2, 11]: 62.4 g and 64.0 g and 61.5 g and 63.7 g and 59.2 g and 39.7 g and 52.6 g and 68.4 g | Weight Bearing Values of Individual Animal, Day 14, 15 min, Right [2, 11]: 96.4 g and 104.7 g and 95.1 g and 95.7 g and 96.9 g and 71.9 g and 75.2 g and 107.8 g | Weight Bearing Values of Individual Animal, Day 14, 15 min, Δ [2, 11]: 34.0 g and 40.7 g and 33.6 g and 32.0 g and 37.7 g and 32.2 g and 22.6 g and 39.4 g | Weight Bearing Values of Individual Animal, Day 14, 2 h, Left [2, 11]: 59.9 g and 68.1 g and 65.7 g and 44.8 g and 56.2 g and 36.9 g and 65.4 g and 67.0 g | Weight Bearing Values of Individual Animal, Day 14, 2 h, Right [2, 11]: 107.1 g and 101.0 g and 112.2 g and 110.9 g and 98.5 g and 87.3 g and 94.8 g and 107.9 g | Weight Bearing Values of Individual Animal, Day 14, 2 h, Δ [2, 11]: 47.2 g and 32.9 g and 46.5 g and 66.1 g and 42.3 g and 50.4 g and 29.4 g and 40.9 g | Weight Bearing Values of Individual Animal, Day 14, 5 h, Left [2, 11]: 55.9 g and 34.5 g and 56.8 g and 58.2 g and 47.3 g and 31.3 g and 41.6 g and 73.0 g | Weight Bearing Values of Individual Animal, Day 14, 5 h, Right [2, 11]: 102.4 g and 85.3 g and 101.8 g and 88.4 g and 90.0 g and 66.5 g and 76.3 g and 116.4 g | Weight Bearing Values of Individual Animal, Day 14, 5 h, Δ [2, 11]: 46.5 g and 50.8 g and 45.0 g and 30.2 g and 42.7 g and 35.2 g and 34.7 g and 43.4 g | Weight Bearing Values of Individual Animal, Day 7, 15 min, Left [2, 12]: 47.4 g and 40.2 g and 67.4 g and 60.4 g and 40.3 g and 39.0 g and 24.3 g and 58.1 g | Weight Bearing Values of Individual Animal, Day 7, 15 min, Right [2, 12]: 93.5 g and 94.1 g and 110.9 g and 89.1 g and 91.2 g and 81.7 g and 62.7 g and 112.0 g | Weight Bearing Values of Individual Animal, Day 7, 15 min, Δ [2, 12]: 46.1 g and 53.9 g (2×) and 43.5 g and 28.7 g and 50.9 g and 42.7 g and 38.4 g | Weight Bearing Values of Individual Animal, Day 7, 2 h, Left [2, 12]: 48.5 g and 39.0 g and 65.0 g and 66.3 g and 48.4 g and 43.4 g and 38.0 g and 54.8 g | Weight Bearing Values of Individual Animal, Day 7, 2 h, Right [2, 12]: 91.5 g and 81.8 g and 102.9 g and 97.7 g and 80.7 g and 82.3 g and 81.5 g and 113.7 g | Weight Bearing Values of Individual Animal, Day 7, 2 h, Δ [2, 12]: 43.0 g and 42.8 g and 37.9 g and 31.4 g and 32.3 g and 38.9 g and 43.5 g and 58.9 g | First Baseline, Balance Left, individual animal ([2]; individual animal, pretreatment day 7, left (CFA-injected) hind paw): 31.3 g and 27.8 g and 41.8 g and 63.2 g and 73.9 g and 49.6 g and 33.9 g and 60.4 g | First Baseline, Balance Right, individual animal ([2]; individual animal, pretreatment day 7, right hind paw): 83.6 g and 87.0 g and 91.8 g and 105.0 g and 114.0 g and 102.9 g and 71.5 g and 114.4 g | First Baseline, Balance Δ, individual animal ([2]; individual animal, pretreatment day 7, right minus left): 52.3 g and 59.2 g and 50.0 g and 41.8 g and 40.1 g and 53.3 g and 37.6 g and 54.0 g | Second Baseline, Balance Left, individual animal ([2]; individual animal, pretreatment day 14, left (CFA-injected) hind paw): 61.3 g and 45.0 g and 70.0 g and 51.2 g and 34.7 g and 24.8 g and 43.5 g and 65.5 g | Second Baseline, Balance Right, individual animal ([2]; individual animal, pretreatment day 14, right hind paw): 115.3 g and 95.2 g and 119.5 g and 104.5 g and 76.6 g and 67.1 g and 84.3 g and 107.3 g | Second Baseline, Balance Δ, individual animal ([2]; individual animal, pretreatment day 14, right minus left): 54.0 g and 50.2 g and 49.5 g and 53.3 g and 41.9 g and 42.3 g and 40.8 g and 41.8 g | Volume of added water ([3]; about 0.1 g sample, room temperature, water added until dissolved): 66.5 mL | solubility ([3]; water, thermodynamic from solid): 1500 µg/mL (≈ 2750 µM)
